In patent publication US20170121322A1, “BET-PROTEIN INHIBITING 3,4-DIHYDROPYRIDO[2,3-B]PYRAZINONES WITH META-SUBSTITUTED AROMATIC AMINO- OR ETHER GROUPS” (Bayer Pharma Aktiengesellschaft, priority 2014, published 2017):

Columns and labels:
MOLM-13 cells = assay: Cell proliferation assay MOLM-13, method 2 (CellTiterGlo); format: cell-based; details: Homo sapiens, MOLM-13, 72 h; acute myeloid leukaemia cells, 500 cells/well, 1536-well, 3-day incubation, CellTiterGlo ATP readout
Procedure: Alternatively, the MOLM-13 cells (DSMZ, ACC 554) were seeded at a concentration of 500 cells/well in 5 μl of growth medium (RPMI1640, 10% FCS) on 1536-well microtitre plates (method 2).
In method 2, after 3-day incubation with the inhibitor, the ATP concentration was determined as readout for the cell number using the CellTiterGlo kit (Promega). The measurement was carried out using a luminometer.
The substances were tested in the cell lines in Table 2, which represent the indications specified by way of example: […]

[1] = target: T1, BRD4 bromo domain 2 [BRD4(2)] (Homo sapiens, UniProt O60885); assay: BRD4(2)/acetylated peptide H4 TR-FRET binding assay; details: His6-BRD4(2) (aa 357-445) vs acetylated histone H4 peptide
T1 construct: N-terminally His6-tagged BRD4(2) (amino acids 357-445); made in house; host or cells: E. coli
Description: To assess the BRD4(2) binding strength of the substances described in this application, the ability thereof to inhibit the interaction between BRD4(2) and acetylated histone H4 in a dose-dependent manner was quantified.
(§1) For this purpose, a time-resolved fluorescence resonance energy transfer (TR-FRET) assay was used, which measures the binding between N-terminally His6-tagged BRD4(2) (amino acids 357-445) and a synthetic acetylated histone H4 (Ac-H4) peptide with sequence SGRGK(Ac)GGK(Ac)GLGK(Ac)GGAK(Ac)RHRKVLRDNGSGSK-biotin. The recombinant BRD4(2) protein produced in-house according to Filippakopoulos et al., Cell, 2012, 149:214-231 was expressed in E. coli and purified by means of (Ni-NTA) affinity and (Sephadex G-75) size exclusion chromatography. The Ac-H4 peptide can be purchased, for example, from Biosyntan (Berlin, Germany).
(§2) In the assay, typically 11 different concentrations of each substance (0.1 nM, 0.33 nM, 1.1 nM, 3.8 nM, 13 nM, 44 nM, 0.15 μM, 0.51 μM, 1.7 μM, 5.9 μM and 20 μM) were analysed as duplicates on the same microtitre plate. For this purpose, 100-fold concentrated solutions in DMSO were prepared by serial dilutions (1:3.4) of a 2 mM stock solution into a clear, 384-well microtitre plate (Greiner Bio-One, Frickenhausen, Germany). From this, 50 nl were transferred into a black test plate (Greiner Bio-One, Frickenhausen, Germany). The test was started by the addition of 2 μl of a 2.5-fold concentrated BRD4(2) solution (final concentration typically 100 nM in the 5 μl of reaction volume) in aqueous assay buffer [50 mM HEPES pH 7.5, 50 mM sodium chloride (NaCl); 50 mM potassium fluoride (KF); 0.25 mM CHAPS and 0.05% serum albumin (BSA)] to the substances in the test plate. This was followed by a 10-minute incubation step at 22° C. for the pre-equilibration of putative complexes between BRD4(2) and the substances.
(§3) The mixture was then incubated in the dark at 22° C. for one hour and then at 4° C. for at least 3 hours and for no longer than overnight. The formation of BRD4(2)/Ac-H4 complexes was determined by the measurement of the resonance energy transfer from the streptavidin-Eu chelate to the anti-6His-XL665 antibody present in the reaction. For this purpose, the fluorescence emission was measured at 620 nm and 665 nm after excitation at 330-350 nm in a TR-FRET measuring instrument, for example a Rubystar or Pherastar (both from BMG Lab Technologies, Offenburg, Germany) or a Viewlux (Perkin-Elmer). The ratio of the emissions at 665 nm and at 622 nm was taken as an indicator of the amount of BRD4(2)/Ac-H4 complexes formed.
(§4) The data (ratios) obtained were normalized, with 0% inhibition corresponding to the mean from the measurements for a set of controls (typically 32 data points) in which all the reagents were present. In these, in place of test substances, 50 nl of DMSO (100%) were used. Inhibition of 100% corresponded to the mean from the measurements for a set of controls (typically 32 data points) in which all the reagents except BRD4(2) were present. The IC50 was determined by regression analysis based on a 4-parameter equation (minimum, maximum, IC50, Hill; Y=Max+(Min−Max)/(1+(X/IC50)Hill)).

[2] = target: T2, BRD4 bromo domain 1 [BRD4(1)] (Homo sapiens, UniProt O60885); assay: BRD4(1)/acetylated peptide H4 TR-FRET binding assay; details: His6-BRD4(1) (aa 67-152) vs acetylated histone H4 peptide
T2 construct: N-terminally His6-tagged BRD4(1) (amino acids 67-152); made in house; host or cells: E. coli
Description: To assess the BRD4(1) binding strength of the substances described in this application, the ability thereof to inhibit the interaction between BRD4(1) and acetylated histone H4 in a dose-dependent manner was quantified.
as §1, with “BRD4(1)” for “BRD4(2)”, “67-152)” for “357-445)”, “GRGK(Ac)GGK(Ac)GLGK(Ac)GGAK(Ac)RHGSGSK-biotin.” for “SGRGK(Ac)GGK(Ac)GLGK(Ac)GGAK(Ac)RHRKVLRDNGSGSK-biotin.”
as §2, with “concentrated BRD4(1)” for “concentrated BRD4(2)”, “typically 10” for “typically 100”, “chloride (NaCl),” for “chloride (NaCl); 50 mM potassium fluoride (KF);”, “between BRD4(1)” for “between BRD4(2)”, “substances. Subsequently, 3 μl of a solution of 1.67 times the concentration (in assay buffer) consisting of Ac-H4 peptide (83.5 nM) and TR-FRET detection reagents [16.7 nM anti-6His-XL665 and 3.34 nM streptavidin cryptate (both from Cisbio Bioassays, Codolet, France), and 668 mM potassium fluoride (KF)] were added.” for “substances.”
as §3, with “BRD4(1)/Ac-H4” for “BRD4(2)/Ac-H4”, “cryptate” for “chelate”
as §4, with “BRD4(1)” for “BRD4(2)”, “Y=Max+(Min−Max)/(1+(X/IC50)Hill).” for “Y=Max+(Min−Max)/(1+(X/IC50)Hill)).”

Work on CCS(=O)(=O)c1ccc(Oc2ccc(F)cc2)c(Nc2ccc3c(n2)N(C2CCN(C)CC2)[C@H](C)C(=O)N3C)c1 [Example 32, (3R)-6-{[5-(Ethylsulphonyl)-2-(4-fluorophenoxy)phenyl]amino}-1,3-dimethyl-4-(1-methylpiperidin-4-yl)-3,4-dihydropyrido[2,3-b]pyrazin-2(1H)-one] yielded an IC50 (MOLM-13 cells) of 0.04 µM, an IC50 [1] of 0.029 µM and an IC50 [2] of 0.945 µM.
Compound CCS(=O)(=O)c1ccc(Oc2ccccc2)c(Nc2ccc3c(n2)N(C2CCN(C)CC2)[C@H](C)C(=O)N3C)c1 [Example 33, (3R)-6-{[5-(Ethylsulphonyl)-2-phenoxyphenyl]amino}-1,3-dimethyl-4-(1-methylpiperidin-4-yl)-3,4-dihydropyrido[2,3-b]pyrazin-2(1H)-one] has an IC50 (MOLM-13 cells) of 0.026 µM, an IC50 [1] of 0.051 µM and an IC50 [2] of 0.015 µM.
C[C@@H]1C(=O)N(C)c2ccc(Nc3cccc(S(C)(=N)=O)c3)nc2N1C1CCOCC1 (stereo partly drawn) [Example 44, (3R)-1,3-Dimethyl-6-{[3-(S-methylsulphonimidoyl)phenyl]amino}-4-(tetrahydro-2H-pyran-4-yl)-3,4-dihydropyrido[2,3-b]pyrazin-2(1H)-one] gave an IC50 (MOLM-13 cells) of over 10 µM, an IC50 [1] of 7.34 µM and an IC50 [2] of 3.64 µM.
For COc1ccc(S(C)(=O)=O)cc1Nc1ccc2c(n1)N(C1CCN(C(=O)OC(C)(C)C)CC1)[C@H](C)C(=O)N2C [Example 25, tert-Butyl 4-[(3R)-6-{[2-methoxy-5-(methylsulphonyl)phenyl]amino}-1,3-dimethyl-2-oxo-2,3-dihydropyrido[2,3-b]pyrazin-4(1H)-yl]piperidine-1-carboxylate], the IC50 (MOLM-13 cells) was 0.576 µM, the IC50 [1] was 0.135 µM and the IC50 [2] was 0.156 µM.
Work on C[C@@H]1C(=O)N(C)c2ccc(Nc3cccc(N4CCN(C)CC4)c3)nc2N1C1CCOCC1 [Example 41, (3R)-1,3-Dimethyl-6-{[3-(4-methylpiperazin-1-yl)phenyl]amino}-4-(tetrahydro-2H-pyran-4-yl)-3,4-dihydropyrido[2,3-b]pyrazin-2(1H)-one] yielded an IC50 (MOLM-13 cells) of 0.708 µM, an IC50 [1] of 0.63 µM and an IC50 [2] of 0.133 µM.
C=CCS(=O)(=O)c1ccc(OC)c(Nc2ccc3c(n2)N(C2CCN(C)CC2)[C@H](C)C(=O)N3C)c1 [Example 23, (3R)-6-{[5-(Allylsulphonyl)-2-methoxyphenyl]amino}-1,3-dimethyl-4-(1-methylpiperidin-4-yl)-3,4-dihydropyrido[2,3-b]pyrazin-2(1H)-one] gave an IC50 (MOLM-13 cells) of 0.051 µM, an IC50 [1] of 0.064 µM and an IC50 [2] of 0.027 µM.
C[C@@H]1C(=O)N(C)c2ccc(Nc3cccc(-c4ccc(C#N)cc4)c3)nc2N1C1CCOCC1 [Example 18, 3′-{[(3R)-1,3-Dimethyl-2-oxo-4-(tetrahydro-2H-pyran-4-yl)-1,2,3,4-tetrahydropyrido[2,3-b]pyrazin-6-yl]amino}biphenyl-4-carbonitrile] showed an IC50 (MOLM-13 cells) of 1.65 µM, an IC50 [1] of 0.294 µM and an IC50 [2] of 1.1 µM.
With COc1ccc(S(=O)(=O)C(C)C)cc1Nc1ccc2c(n1)N(C1CCN(C(=O)OC(C)(C)C)CC1)[C@H](C)C(=O)N2C [Example 24, tert-Butyl 4-[(3R)-6-{[5-(isopropylsulphonyl)-2-methoxyphenyl]amino}-1,3-dimethyl-2-oxo-2,3-dihydropyrido[2,3-b]pyrazin-4(1H)-yl]piperidine-1-carboxylate] the IC50 (MOLM-13 cells) was 0.147 µM, the IC50 [1] was 0.078 µM and the IC50 [2] was 0.086 µM.
In the case of CC(C)S(=O)(=O)c1cccc(Nc2ccc3c(n2)N(C2CCN(CCC(F)(F)F)CC2)[C@H](C)C(=O)N3C)c1 [Example 30, (3R)-6-{[3-(Isopropylsulphonyl)phenyl]amino}-1,3-dimethyl-4-[1-(3,3,3-trifluoropropyl)piperidin-4-yl]-3,4-dihydropyrido[2,3-b]pyrazin-2(1H)-one], the IC50 (MOLM-13 cells) is reported as 0.073 µM, the IC50 [1] is reported as 0.114 µM and the IC50 [2] is reported as 0.02 µM.
CCS(=O)(=O)c1ccc(Oc2ccccc2)c(Nc2ccc3c(n2)N(C2CCOCC2)[C@H](C)C(=O)N3C)c1 [Example 36, (3R)-6-{[5-(Ethylsulphonyl)-2-phenoxyphenyl]amino}-1,3-dimethyl-4-(tetrahydro-2H-pyran-4-yl)-3,4-dihydropyrido[2,3-b]pyrazin-2(1H)-one] was tested, and the IC50 (MOLM-13 cells) was 0.16 µM, the IC50 [1] was 0.049 µM and the IC50 [2] was 0.034 µM.
With CCS(=O)(=O)c1ccc(Oc2ccc(F)cc2)c(Nc2ccc3c(n2)N(C2CCOCC2)[C@H](C)C(=O)N3C)c1 [Example 37, (3R)-6-{[5-(Ethylsulphonyl)-2-(4-fluorophenoxy)phenyl]amino}-1,3-dimethyl-4-(tetrahydro-2H-pyran-4-yl)-3,4-dihydropyrido[2,3-b]pyrazin-2(1H)-one] the IC50 (MOLM-13 cells) was 0.124 µM, the IC50 [1] was 0.039 µM and the IC50 [2] was 0.035 µM.
